Experimental data from PubChem BioAssay AID248 (DTP/NCI, 2004).
Where “and” joins values, the source holds several entries; their conditions need not be identical. Equal entries are not always repeated. Toxic doses and inconclusive results are not listed. Cut-off read from the data, not from the text of the source: active = T/C of 150% or more; inactive = T/C below 125%.

Tested on: L1210 leukemia ip in BDF1 mice, survival T/C
Assay: NCI In Vivo Anticancer Drug Screen. Data for tumor model L1210 Leukemia (intraperitoneal) in B6D2F1 (BDF1) mice
Conditions: endpoint: mean survival time, higher = longer survival
Summary of the method: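 Tumor was transplanted into mice, which were then dosed with test compound or vehicle alone. Survival was recorded for each group, and the treated figure was expressed relative to the control figure.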

[1] = dose: 100.0 mg/kg/injection, schedule: Q04DX003 (ip), vehicle: saline with Tween-80
[2] = dose: 200.0 mg/kg/injection, schedule: Q04DX003 (ip), vehicle: saline with Tween-80
[3] = dose: 400.0 mg/kg/injection, schedule: Q04DX003 (ip), vehicle: saline with Tween-80
[4] = dose: 100.0 mg/kg/injection, schedule: Q01DX001 (ip), vehicle: saline
[5] = dose: 200.0 mg/kg/injection, schedule: Q01DX001 (ip), vehicle: saline
[6] = dose: 400.0 mg/kg/injection, schedule: Q01DX001 (ip), vehicle: saline
[7] = dose: 100.0 mg/kg/injection, schedule: Q01DX001 (ip), vehicle: carboxymethylcellulose (CMC)
[8] = dose: 200.0 mg/kg/injection, schedule: Q01DX001 (ip), vehicle: carboxymethylcellulose (CMC)

Measured: T/C

CCCCOC(=O)c1ccc(OCCOc2ccc(C(C)(C)CC(C)(C)C)cc2)c(NC(=O)CC(=O)c2cccc(N)c2)c1
inactive: dose: 100.0 mg/kg/injection, schedule: Q01DX009 (ip), vehicle: saline sonified 97 % of control | dose: 100.0 mg/kg/injection, schedule: Q04DX003 (ip), vehicle: Klucel (hydroxypropylcellulose) (HPC) 96 % of control | dose: 200.0 mg/kg/injection, schedule: Q01DX009 (ip), vehicle: saline sonified 91 % of control | dose: 200.0 mg/kg/injection, schedule: Q04DX003 (ip), vehicle: Klucel (hydroxypropylcellulose) (HPC) 93 % of control | dose: 400.0 mg/kg/injection, schedule: Q01DX009 (ip), vehicle: saline sonified 103 % of control | dose: 400.0 mg/kg/injection, schedule: Q04DX003 (ip), vehicle: Klucel (hydroxypropylcellulose) (HPC) 88 % of control

Cc1c(Cl)cccc1NC(=O)Nc1cccc(O)c1
inactive: dose: 100.0 mg/kg/injection, schedule: Q01DX009 (ip), vehicle: saline with Tween-80 104 % of control and 89 % of control | dose: 100.0 mg/kg/injection, schedule: Q04DX002 (ip), vehicle: saline with Tween-80 97 % of control and 100 % of control | [1] 101 % of control | dose: 200.0 mg/kg/injection, schedule: Q01DX009 (ip), vehicle: saline with Tween-80 95 % of control and 97 % of control | dose: 200.0 mg/kg/injection, schedule: Q04DX002 (ip), vehicle: saline with Tween-80 93 % of control and 89 % of control | [2] 100 % of control | dose: 400.0 mg/kg/injection, schedule: Q01DX009 (ip), vehicle: saline with Tween-80 93 % of control and 90 % of control | dose: 400.0 mg/kg/injection, schedule: Q04DX002 (ip), vehicle: saline with Tween-80 93 % of control and 94 % of control | [3] 97 % of control

CCC(SC#N)C(CC)SC#N (stereo not given)
inactive: dose: 12.5 mg/kg/injection, schedule: Q04DX002 (ip), vehicle: Klucel (hydroxypropylcellulose) (HPC) 103 % of control | dose: 25.0 mg/kg/injection, schedule: Q04DX002 (ip), vehicle: Klucel (hydroxypropylcellulose) (HPC) 93 % of control | dose: 50.0 mg/kg/injection, schedule: Q04DX002 (ip), vehicle: Klucel (hydroxypropylcellulose) (HPC) 90 % of control

C=C(Br)CNC(=O)C(C)(C)C
inactive: [1] 97 % of control | [2] 97 % of control | [3] 98 % of control

O=c1cc(NCc2ccc(Cl)cc2)[nH]c(=O)[nH]1
inactive: dose: 100.0 mg/kg/injection, schedule: Q01DX001 (ip), vehicle: saline with Tween-80 108 % of control | dose: 200.0 mg/kg/injection, schedule: Q01DX001 (ip), vehicle: saline with Tween-80 95 % of control | dose: 400.0 mg/kg/injection, schedule: Q01DX001 (ip), vehicle: saline with Tween-80 98 % of control

NCC(=O)c1ccc(Cl)cc1
inactive: [4] 102 % of control | [5] 104 % of control

COC(=O)/C=C(\C)CCC1OC1(C)C (stereo not given)
inactive: [4] 105 % of control | dose: 100.0 mg/kg/injection, schedule: Q04DX003 (ip), vehicle: acetone 95 % of control | [5] 100 % of control | dose: 200.0 mg/kg/injection, schedule: Q04DX003 (ip), vehicle: acetone 108 % of control | [6] 94 % of control | dose: 400.0 mg/kg/injection, schedule: Q04DX003 (ip), vehicle: acetone 103 % of control

O=Cc1c[nH]c2ccc(Br)cc12
inactive: dose: 100.0 mg/kg/injection, schedule: Q04DX003 (ip), vehicle: saline 95 % of control | dose: 200.0 mg/kg/injection, schedule: Q04DX003 (ip), vehicle: saline 105 % of control | dose: 400.0 mg/kg/injection, schedule: Q04DX003 (ip), vehicle: saline 95 % of control

C[n+]1c(/C=C/c2ccc(O)c3ccccc23)ccc2ccccc21
inactive: dose: 75.0 mg/kg/injection, schedule: Q01DX001 (ip), vehicle: carboxymethylcellulose (CMC) 92 % of control | dose: 150.0 mg/kg/injection, schedule: Q01DX001 (ip), vehicle: carboxymethylcellulose (CMC) 97 % of control

CC(=O)CC(=O)NCCCc1ccccc1
inactive: dose: 100.0 mg/kg/injection, schedule: Q01DX009 (sc), vehicle: olive oil, sesame oil, peanut oil 101 % of control | [1] 97 % of control | dose: 200.0 mg/kg/injection, schedule: Q01DX009 (sc), vehicle: olive oil, sesame oil, peanut oil 103 % of control | [2] 103 % of control | dose: 400.0 mg/kg/injection, schedule: Q01DX009 (sc), vehicle: olive oil, sesame oil, peanut oil 106 % of control | [3] 97 % of control

NC1(C(=O)O)CC2CC1C2 (stereo not given)
inactive: dose: 100.0 mg/kg/injection, schedule: Q04DX002 (ip), vehicle: other 95 % of control | dose: 200.0 mg/kg/injection, schedule: Q04DX002 (ip), vehicle: other 106 % of control | dose: 400.0 mg/kg/injection, schedule: Q04DX002 (ip), vehicle: other 92 % of control

Cn1c(=N)ccn(C2OC(CO)C(O)C2O)c1=O (stereo not given) (tested in a mixture with another compound)
inactive: [4] 106 % of control | [5] 106 % of control | [6] 107 % of control

CN1CCC(CO)CC1
inactive: [4] 94 % of control | [5] 100 % of control

CNC(=O)c1cc(NC(=O)c2ccc(C(=O)Nc3cc(C(=O)NC)cc(C4=NCCN4)c3)cc2)cc(C2=NCCN2)c1
inactive: dose: 16.0 mg/kg/injection, schedule: Q01DX015 (ip), vehicle: methylcellulose (MC) 90 % of control | dose: 25.0 mg/kg/injection, schedule: Q01DX009 (ip), vehicle: carboxymethylcellulose (CMC) 96 % of control | dose: 31.0 mg/kg/injection, schedule: Q01DX015 (ip), vehicle: methylcellulose (MC) 94 % of control | dose: 50.0 mg/kg/injection, schedule: Q01DX009 (ip), vehicle: carboxymethylcellulose (CMC) 96 % of control | dose: 62.0 mg/kg/injection, schedule: Q01DX015 (ip), vehicle: methylcellulose (MC) 94 % of control and 120 % of control | [7] 96 % of control | dose: 100.0 mg/kg/injection, schedule: Q01DX009 (ip), vehicle: carboxymethylcellulose (CMC) 113 % of control | dose: 125.0 mg/kg/injection, schedule: Q01DX015 (ip), vehicle: methylcellulose (MC) 94 % of control and 102 % of control | [8] 91 % of control | dose: 200.0 mg/kg/injection, schedule: Q01DX009 (ip), vehicle: carboxymethylcellulose (CMC) 98 % of control | dose: 500.0 mg/kg/injection, schedule: Q01DX015 (ip), vehicle: methylcellulose (MC) 106 % of control

COc1ccc(NC(=O)Nc2cccc(C(=O)O)c2)c(OC)c1
inactive: dose: 100.0 mg/kg/injection, schedule: Q04DX002 (ip), vehicle: Klucel (hydroxypropylcellulose) (HPC) 101 % of control | dose: 200.0 mg/kg/injection, schedule: Q04DX002 (ip), vehicle: Klucel (hydroxypropylcellulose) (HPC) 104 % of control | dose: 400.0 mg/kg/injection, schedule: Q04DX002 (ip), vehicle: Klucel (hydroxypropylcellulose) (HPC) 97 % of control

CN(Cc1ccccc1)C(=O)Nc1ccc(F)c([N+](=O)[O-])c1
inactive: dose: 100.0 mg/kg/injection, schedule: Q01DX009 (ip), vehicle: Klucel (hydroxypropylcellulose) (HPC) 113 % of control | dose: 200.0 mg/kg/injection, schedule: Q01DX009 (ip), vehicle: Klucel (hydroxypropylcellulose) (HPC) 98 % of control | dose: 400.0 mg/kg/injection, schedule: Q01DX009 (ip), vehicle: Klucel (hydroxypropylcellulose) (HPC) 101 % of control

c1ccc2c(c1)Sc1ccccc1S2
inactive: dose: 50.0 mg/kg/injection, schedule: Q01DX001 (ip), vehicle: carboxymethylcellulose (CMC) 106 % of control | [7] 112 % of control | [8] 101 % of control | dose: 400.0 mg/kg/injection, schedule: Q01DX001 (ip), vehicle: carboxymethylcellulose (CMC) 104 % of control

Nc1nnnn1C(=O)NCCCl
inactive: dose: 100.0 mg/kg/injection, schedule: Q01DX001 (ip), vehicle: Klucel (hydroxypropylcellulose) (HPC) 111 % of control | dose: 200.0 mg/kg/injection, schedule: Q01DX001 (ip), vehicle: Klucel (hydroxypropylcellulose) (HPC) 97 % of control | dose: 400.0 mg/kg/injection, schedule: Q01DX001 (ip), vehicle: Klucel (hydroxypropylcellulose) (HPC) 94 % of control
